Key:
rabbit RBCs = test: Deformation-induced ATP release from rabbit RBCs pumped through microbore tubing (luciferin/luciferase chemiluminescence); type: cell-based
Procedure: (§1) Preparation of RBCs. Rabbits (New Zealand whites, males, 2.0-2.5 kg) were anesthetized with ketamine ([…], i.m.) and xylazine (1 mg/kg, i.m.) followed by pentobarbital sodium (15 mg/kg i.v.). A cannula was placed in the trachea and the animals were ventilated with room air. A catheter was placed into a carotid artery for administration of heparin and for phlebotomy. After heparin (500 units, i.v.), the animals were exsanguinated. Human blood was obtained by venipuncture without the use of a tourniquet (antecubital fossa) and collected into a heparinized syringe. Blood was centrifuged at 500×g at 4° C. for 10 min. The plasma and buffy coat were discarded. The RBCs were resuspended and washed three times in a physiological salt solution [PSS, containing in mM: 4.7 KCl, 2.0 CaCl2, 140.5 NaCl […], 21.0 tris(hydroxymethyl)aminomethane, 11.1 dextrose with 5% bovine serum albumin (final pH 7.4)]. Cells were prepared on the day of use and experiments were finished within 8 hours of removal from the animal or human subjects. All procedures were approved by the Animal Investigation Committee or the Human Investigation Committee at Wayne State University.
(§2) Measurement of ATP. Human C-peptide (American Peptide Co., Sunnyvale, Calif.), 0.25 mg (MW=3020 g/mol), was dissolved in […] of purified water (18.2 megaohm) to yield a concentration of 83 μM. […] The resulting chemluminescence reaction flowed through a final potion of fused-silica microbore tubing that was placed over a photomultiplier tube, where the emission was detected. The resultant current was measured as a potential by a data acquisition board operated by a program written with the LabView software package (National Instruments, Austin, Tex.).
Introduction. […] Upon deformation in the tubing, the RBCs release ATP that is measured using a well-established chemiluminescence assay for ATP. The concentrations of RBC-derived ATP are measured in the presence and absence of synthetic C-peptide.
C-Peptide-Induced Release of ATP. RBCs obtained from rabbits are pumped through microbore tubing having an inside diameter of 50 μm and the resultant ATP released by the cells upon deformation in the tubing is measured. […] Another aliquot from the same RBC sample is incubated in 1 nM C-peptide and the resultant ATP release measured every 2 h for a period up to 6 h. […] As shown, the ATP release (determined by a chemiluminescence assay) from those cells incubated in the c-peptide increased approximately 2.9 times over a period of […]. […] If cell lysis were occurring, the glybenclamide would have no affect on the measured ATP as it would be present in extracellular form whether or not glybenclamide was introduced to the RBCs. […]

[1] = Electrospray ionization mass spectrometry of C-peptide and metal adducts in aqueous solution; settings: ESI-MS
Procedure: Mass Spectrometric Analysis of Metal-Peptide Binding.
Specifically, the mass spectrum shown in FIG. 3a is that of peptide prepared in water and analyzed within 0.5 h of preparation. In 3a, the [M+3H]^3+ peak is present as are other forms of the peptide with sodium atoms, potassium atoms, or a combination thereof.

RBCs [2] = test: Cell lysis control: RBC solutions measured under non-flow conditions with a luminometer; type: cell-based; settings: 200 μL RBC solution and 200 μL luciferin/luciferase solution
Procedure: To ensure that the resulting increase in ATP release was due to C-peptide interacting with the RBCs and not cell lyses, the RBC solutions were measured under non-flow conditions using a luminometer with 200 μL of the RBC solution and 200 μL of the luciferin/luciferase solution. […] To ensure that lysis was not occurring in the tubing, a solution of 0.01 M glybenclamide was prepared by adding 49 mg of glybenclamide (Sigma) to 2 mL of a 0.1 M solution of sodium hydroxide. To this, 7.94 mL of a dextrose solution (1 g dextrose in 20 mL of purified water) was added. The mixture was heated carefully to 52° C. until all of the glybenclamide was dissolved. Once the solute was completely dissolved, 1 mL of this solution was added to 9 mL of PSS, resulting in a solution with a concentration 0.001 M. From this diluted solution, 2.5 mL were added to 2.5 mL of 7% hematocrit RBC solution, resulting in a 3.5% hematocrit solution of RBCs. This solution was allowed to incubate for 15 minutes. As a comparison, 2.5 mL of wash buffer without glybenclamide was added to 2.5 mL of 7% hematocrit RBCs. After 15 minutes, the RBC solutions were assayed.

RBCs [3] = test: Loss of ATP-release bioactivity of C-peptide preparation in water (repeats of Experiments 1 and 2); type: cell-based
diabetic human RBCs = test: ATP release from RBCs of patients with type II diabetes; type: cell-based; settings: n=7; for ATP release: diabetic human RBCs, ±SEM, FIG. 2
Procedure: as §1
as §2, with “μM. Next, an appropriate volume of this C-peptide solution was added to 10 mL of a 7% solution of RBCs to create a solution containing the C-peptide at concentrations in the 1-5 nM range.” for “μM.”, “Tex.). […]” for “Tex.).”

Compound	effect on the C-peptide-induced increase in ATP release (rabbit RBCs; RBCs incubated in glybenclamide)	time in solution without degradation or cleavage [1]	ability to induce ATP release from deformed RBCs (rabbit RBCs; C-peptide solution kept at 4° C. for >30 days)	increase in ATP release (rabbit RBCs; rabbit RBCs, 1 nM C-peptide, over a period of 8 h, normalized values, FIG. 1)	increase in ATP release versus control (buffer without C-peptide) (rabbit RBCs; rabbit RBCs, 1 nM C-peptide, over the 6 h period)	luminescence signal under non-flow conditions (cell lysis check) (RBCs [2])	time to loss of bioactivity after preparation in water (RBCs [3])	restoration of ATP release levels (diabetic human RBCs; RBCs of patients with type II diabetes, compared with healthy non-diabetic controls)	ATP release (diabetic human RBCs; after 6 hours of incubation with freshly prepared C-peptide preparation)	ATP release (diabetic human RBCs; at 0 hours, freshly prepared C-peptide preparation)
COc1ccc(Cl)cc1C(=O)NCCc1ccc(S(=O)(=O)NC(=O)NC2CCCCC2)cc1 [glybenclamide]	can be inhibited									
C-peptide		> 30 days	no longer has the ability to induce ATP release from deformed RBCs	approximately 2.9 times	nearly three times that of the RBCs incubated with a control	No detectable signals were obtained	24 to 36 h	restore these release levels to a value that is statistically equivalent to that of healthy, non-diabetic control patients	256.1 ± 38.7 nM	63.6 ± 12.6 nM

Reference: patent publication US20110020849A1, “BIOMARKERS FOR DIAGNOSTIC AND THERAPEUTIC METHODS” (Wayne State University, priority 2007, published 2011)
